Experimental findings from article PMC6412119 (2019) are described below.

In this test the test system is c-MYC Pu22-G10>T10 (DNA, G4) TGAGGGTGGTTAGGGTGGGTAA
The experiment in a line: fluorescence light-up. Particulars: 100 mM KCl; 10 mM potassium phosphate pH 7.0; 0.5 μM each; weak response.

Regarding `C(=NNc1nc(Nc2ccccc2)nc(Nc2ccccc2)n1)c1c2ccccc2cc2ccccc12`, the binding result is reported as “weak”.
